Assay results as given in ChEMBL document CHEMBL1201862, “PubChem BioAssay data set” (2004).
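These data come from cells grown in 96-well plates and exposed to compound for 48 hours at five concentrations. Abbreviation: GI50, concentration required for 50% inhibition of growth.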 The source made the active and inactive calls. No stated cut-off is given here; in the data, active = GI50 up to about 1.1 µM and inactive = higher.

Experiments:
Assay in all cases: NCI tumour cell line growth inhibition, 48 h
NCI-H522 = system: NCI-H522
OVCAR-8 = system: OVCAR-8
TK-10 = system: TK-10
786-0 = system: 786-0
M14 = system: M14
IGROV-1 = system: IGROV-1
UACC-62 = system: UACC-62
KM12 = system: KM12
SN12C = system: SN12C
HCT-15 = system: HCT-15
A549 = system: A549
RXF 393 = system: RXF 393
HT-29 = system: HT-29
HOP-92 = system: HOP-92
OVCAR-5 = system: OVCAR-5
U-251 = system: U-251

| Compound | GI50 (NCI-H522) | GI50 (OVCAR-8) | GI50 (TK-10) | GI50 (786-0) | GI50 (M14) | GI50 (IGROV-1) | GI50 (UACC-62) | GI50 (KM12) | GI50 (SN12C) | GI50 (HCT-15) | GI50 (A549) | GI50 (RXF 393) | GI50 (HT-29) | GI50 (HOP-92) | GI50 (OVCAR-5) | GI50 (U-251) |
| --- | --- | --- | --- | --- | --- | --- | --- | --- | --- | --- | --- | --- | --- | --- | --- | --- |
| COc1ccc([Se][Se]c2ccc(OC)cc2OC)c(OC)c1 | 1.86 µM (inactive) | 4.75 µM (inactive) | 4.06 µM (inactive) | 2.81 µM (inactive) | 2.92 µM (inactive) | 3.25 µM (inactive) | 1.93 µM (inactive) | 3.52 µM (inactive) | 2 µM (inactive) | 1.84 µM | 8.89 µM (inactive) | 2.13 µM (inactive) | 3.14 µM (inactive) | 2.35 µM (inactive) |  |  |
| CC(C)(C)OC(=O)NC1CCCC1=O (stereo unspecified) | > 100 µM (inactive) | > 100 µM (inactive) | > 100 µM (inactive) | > 100 µM (inactive) | > 100 µM (inactive) |  | > 100 µM (inactive) | > 100 µM (inactive) | > 100 µM (inactive) |  | > 100 µM (inactive) | > 100 µM (inactive) | > 100 µM (inactive) | > 100 µM (inactive) | > 100 µM (inactive) | > 100 µM (inactive) |
| NCC1(N2CCOCC2)C2CCCC21CO (stereo unspecified) | > 100 µM (inactive) | > 100 µM (inactive) |  | > 100 µM (inactive) | > 100 µM (inactive) | > 100 µM (inactive) |  | > 100 µM (inactive) | > 100 µM (inactive) | > 100 µM | > 100 µM (inactive) | > 100 µM (inactive) | > 100 µM (inactive) | > 100 µM (inactive) | > 100 µM (inactive) | > 100 µM (inactive) |
| COC(=O)/C([Se]c1c(C)cc(C)cc1C)=C(\[Se]c1c(C)cc(C)cc1C)C(=O)OC | > 100 µM (inactive) | > 100 µM (inactive) | > 100 µM (inactive) | > 100 µM (inactive) | > 100 µM (inactive) | > 100 µM (inactive) | > 100 µM (inactive) | > 100 µM (inactive) | > 100 µM (inactive) | > 100 µM | > 100 µM (inactive) | > 100 µM (inactive) | > 100 µM (inactive) | > 100 µM (inactive) | > 100 µM (inactive) | > 100 µM (inactive) |
| COC(=O)C(=O)C(C(=O)C(=O)Nc1ccccc1C(N)=O)c1nc2ccc(C(=O)c3ccccc3)cc2nc1O (stereo unspecified) | 23.5 µM (inactive) | > 100 µM (inactive) | > 100 µM (inactive) | > 100 µM (inactive) | > 100 µM (inactive) | > 100 µM (inactive) | 27.6 µM (inactive) | 67.3 µM (inactive) | > 100 µM (inactive) | > 100 µM | > 100 µM (inactive) | 80.2 µM (inactive) | > 100 µM (inactive) |  | > 100 µM (inactive) | > 100 µM (inactive) |
| COc1cccc2c1c1ccc3c(c1n2C)C(=O)C=CC3=O | 3.89 µM (inactive) | 15.3 µM (inactive) | 18.9 µM (inactive) | 17.3 µM (inactive) | 14.6 µM (inactive) | 25.5 µM (inactive) | 17.1 µM (inactive) | 78 µM (inactive) | 20.3 µM (inactive) | 17.7 µM | > 100 µM (inactive) |  | 2.43 µM (inactive) | 13.1 µM (inactive) | 41.9 µM (inactive) | 48.5 µM (inactive) |
| COc1cc(C(Cc2ccccc2)NC(C)=O)oc(=O)c1 (stereo unspecified) | > 100 µM (inactive) | > 100 µM (inactive) | 4.14 µM (inactive) | > 100 µM (inactive) | > 100 µM (inactive) | > 100 µM (inactive) | > 100 µM (inactive) | > 100 µM (inactive) | > 100 µM (inactive) | > 100 µM | > 100 µM (inactive) | > 100 µM (inactive) | > 100 µM (inactive) | > 100 µM (inactive) | > 100 µM (inactive) | > 100 µM (inactive) |
| COc1cc2c(cc1O)CCN[C@@]21CS[C@H]2c3c(OC(C)=O)c(C)c4c(c3C(COC1=O)N1C2C2NC(Cc3cc(C)c(OC)c(O)c32)[C@@H]1C#N)OCO4 (stereo partly specified) |  |  | < 0.01 µM (active) | < 0.01 µM (active) | < 0.01 µM (active) | < 0.01 µM (active) | < 0.01 µM (active) |  | < 0.01 µM (active) | < 0.01 µM | < 0.01 µM (active) | < 0.01 µM (active) | < 0.01 µM (active) |  |  | < 0.01 µM (active) |
| C/N=C(\N)c1ccc(NC(=N)c2ccc(C(=N)Nc3ccc(/C(N)=N/C)cc3)cc2)cc1 | > 100 µM (inactive) | > 100 µM (inactive) | > 100 µM (inactive) | > 100 µM (inactive) | > 100 µM (inactive) | > 100 µM (inactive) | > 100 µM (inactive) | > 100 µM (inactive) | > 100 µM (inactive) | > 100 µM | > 100 µM (inactive) | > 100 µM (inactive) | > 100 µM (inactive) | 76 µM (inactive) | > 100 µM (inactive) | > 100 µM (inactive) |
| COC(=O)C(C(=O)C(=O)Nc1ccc(C)cc1C)c1csc(-n2nc(-c3ccccc3)cc2-c2ccccc2)n1 (stereo unspecified) | > 100 µM (inactive) | > 100 µM (inactive) | > 100 µM (inactive) | > 100 µM (inactive) | > 100 µM (inactive) | > 100 µM (inactive) | 61.7 µM (inactive) | 65.2 µM (inactive) | > 100 µM (inactive) | 52.1 µM | > 100 µM (inactive) | 92 µM (inactive) | 31.4 µM (inactive) | > 100 µM (inactive) | 49.9 µM (inactive) | 67.5 µM (inactive) |
| Nc1ccc(C(=O)CC2(O)C(=O)Nc3c(Cl)cc(Cl)cc32)cc1 (stereo unspecified) | 42.5 µM (inactive) | > 100 µM (inactive) | > 100 µM (inactive) | > 100 µM (inactive) | > 100 µM (inactive) |  |  | 83 µM (inactive) | > 100 µM (inactive) | 69.7 µM | > 100 µM (inactive) | > 100 µM (inactive) | > 100 µM (inactive) | > 100 µM (inactive) | > 100 µM (inactive) | 27.2 µM (inactive) |
| CCCC/C=C/C1Cc2ccccc2CN1S(=O)(=O)c1ccc(C)cc1 (stereo unspecified) | 4.31 µM (inactive) | 11.3 µM (inactive) | 20.9 µM (inactive) | 12.3 µM (inactive) | 11.4 µM (inactive) | 12.3 µM (inactive) | 12.7 µM (inactive) | 9.91 µM (inactive) | 10.6 µM (inactive) | 8.39 µM | 5.33 µM (inactive) | 10.8 µM (inactive) | 7.8 µM (inactive) | 2.15 µM (inactive) | 12.5 µM (inactive) | 11.2 µM (inactive) |
| CC(C)N(C(=O)C12C3C4C5C3C1(C(=O)N(C(C)C)C(C)C)C5(C#N)C42)C(C)C (stereo unspecified) | > 100 µM (inactive) | > 100 µM (inactive) | > 100 µM (inactive) | > 100 µM (inactive) | > 100 µM (inactive) | > 100 µM (inactive) | > 100 µM (inactive) | > 100 µM (inactive) | > 100 µM (inactive) | 67.5 µM | 86.3 µM (inactive) |  | > 100 µM (inactive) | > 100 µM (inactive) | > 100 µM (inactive) | > 100 µM (inactive) |
| O=C1COc2cc3c(cc2N1)SCC(=O)N3 | > 100 µM (inactive) | > 100 µM (inactive) | > 100 µM (inactive) | > 100 µM (inactive) | > 100 µM (inactive) | > 100 µM (inactive) | > 100 µM (inactive) | > 100 µM (inactive) |  |  | > 100 µM (inactive) |  | > 100 µM (inactive) | > 100 µM (inactive) |  |  |
| C=CC[C@@]1(C#N)C[C@H](C[C@]2(C#N)C[C@H](CCl)OC(C)(C)O2)OC(C)(C)O1 | 46 µM (inactive) | > 100 µM (inactive) | > 100 µM (inactive) | > 100 µM (inactive) | > 100 µM (inactive) | > 100 µM (inactive) | > 100 µM (inactive) | > 100 µM (inactive) | > 100 µM (inactive) | > 100 µM | > 100 µM (inactive) | > 100 µM (inactive) | > 100 µM (inactive) | 51.9 µM (inactive) | > 100 µM (inactive) | > 100 µM (inactive) |
| O=C1C(c2ccc([N+](=O)[O-])cc2)=[N+]([O-])c2ccc([N+](=O)[O-])cc21 |  | 29.3 µM (inactive) | 77.8 µM (inactive) | > 100 µM (inactive) | 96.2 µM (inactive) | 26.4 µM (inactive) | 21 µM (inactive) | 74 µM (inactive) |  |  | 37.8 µM (inactive) | 56.4 µM (inactive) | 73.1 µM (inactive) |  | > 100 µM (inactive) | 49.9 µM (inactive) |
| C=C1CCC2C(C)(CO)C(O)CCC2(C)C1CC(O)C1=CCOC1=O (stereo unspecified) | 5.36 µM (inactive) | 36.1 µM (inactive) | > 100 µM (inactive) | 23.1 µM (inactive) | 47.3 µM (inactive) | 61.1 µM (inactive) | > 100 µM (inactive) | 36.1 µM (inactive) | 31.4 µM (inactive) | 27.4 µM | 55.2 µM (inactive) |  | 35.7 µM (inactive) | > 100 µM (inactive) | > 100 µM (inactive) | 17.3 µM (inactive) |
| O=C(CCC(=O)Nc1ccc(Cl)c(Cl)c1)Cc1nc2ccccc2o1 | > 100 µM (inactive) | > 100 µM (inactive) | > 100 µM (inactive) | > 100 µM (inactive) | > 100 µM (inactive) | > 100 µM (inactive) | > 100 µM (inactive) | > 100 µM (inactive) | > 100 µM (inactive) | > 100 µM | > 100 µM (inactive) | > 100 µM (inactive) | > 100 µM (inactive) | > 100 µM (inactive) | > 100 µM (inactive) | > 100 µM (inactive) |
| CCOc1cc2ccc3c4cc(OC)c(OC)cc4cnc3c2cc1OCC | > 100 µM (inactive) | > 100 µM (inactive) | > 100 µM (inactive) | > 100 µM (inactive) | > 100 µM (inactive) | > 100 µM (inactive) | > 100 µM (inactive) | > 100 µM (inactive) | > 100 µM (inactive) | > 100 µM | > 100 µM (inactive) |  | > 100 µM (inactive) |  | > 100 µM (inactive) | > 100 µM (inactive) |
